Target: T1, S. pneumoniae SpxB (pyruvate oxidase) (Streptococcus pneumoniae, UniProt A0A0H2ZP58)
T1 construct: recombinant from E. coli Rosetta BL21(DE3)/pLysS, pHis-parallel vector, His tag apparently kept
Test: H2O2 generation, peroxidase-coupled quinoneimine dye at […] nm
Assay type: biochemical
Details: 0.2 mM pyruvate, 50 mM KH2PO4 pH 6, 0.2 mM FAD, 0.2 mM TPP, 0.5 to 2 mM Mg(II) or Mn(II), 37 °C

T1 sequence (A0A0H2ZP58 entry or part of it): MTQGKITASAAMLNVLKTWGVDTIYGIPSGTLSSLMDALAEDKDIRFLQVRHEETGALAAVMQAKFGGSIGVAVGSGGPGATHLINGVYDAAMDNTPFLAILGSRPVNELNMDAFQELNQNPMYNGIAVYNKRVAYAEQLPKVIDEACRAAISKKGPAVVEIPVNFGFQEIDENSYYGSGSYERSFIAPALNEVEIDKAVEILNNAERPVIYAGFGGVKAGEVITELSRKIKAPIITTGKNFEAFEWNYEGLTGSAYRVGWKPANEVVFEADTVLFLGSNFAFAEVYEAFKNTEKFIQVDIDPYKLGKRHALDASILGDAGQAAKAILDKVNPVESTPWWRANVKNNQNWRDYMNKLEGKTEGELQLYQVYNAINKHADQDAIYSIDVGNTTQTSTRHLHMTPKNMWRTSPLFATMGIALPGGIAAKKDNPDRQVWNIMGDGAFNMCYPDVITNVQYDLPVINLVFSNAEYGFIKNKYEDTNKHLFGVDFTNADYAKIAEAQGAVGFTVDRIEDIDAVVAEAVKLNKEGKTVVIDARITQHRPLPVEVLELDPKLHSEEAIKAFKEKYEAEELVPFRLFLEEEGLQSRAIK

## CC(=O)C(=O)O [sodium pyruvate]
  H2O2 generation, peroxidase-coupled quinoneimine dye at 550 nm: Quinoneimine dye formation was monitored in triplicate with the addition of sodium pyruvate

From paper PMC5214746, “Biological and Chemical Adaptation to Endogenous Hydrogen Peroxide Production in Streptococcus pneumoniae D39” (mSphere, 2017)
